In patent US12617818B2, “Compositions and methods for modulating myosin subfragment-2 coiled coil stability and methods for using them” (UNIVERSITY OF NORTH TEXAS, priority 2020, dated 2026):
Several values for one entry are separate records, joined by “and”; a condition that tells them apart may be missing. Equal values may be shown once.

Key:
[1] = molecular target: T1, human cardiac myosin S2 peptide (Homo sapiens, UniProt P12883); experiment: Competitive ELISA (cELISA) against polyclonal anti-S2 antibody; assay type: binding; conditions: curve fit of OD vs peptide concentration; read-out: binding efficiency (Kd) to human cardiac myosin S2 peptide
T1 construct: The 19 residue peptide was chemically synthesized
Method: Phosphate buffer saline (PBS) contained 0.14 M sodium chloride, 2.7 mM potassium chloride, 1.5 mM potassium phosphate monobasic, and 8.1 mM sodium phosphate dibasic with pH 7.4. Detergent buffer was made with 0.05% triton X-100 in PBS, blocking buffer was made with 3% powdered milk in detergent buffer. Assay buffer contained 100 mM potassium phosphate dibasic, 100 mM potassium phosphate monobasic, 1 M potassium chloride and 10 mM magnesium chloride with pH 7.0. Stocks of primary antibody (polyclonal antibody anti-S2), rabbit skeletal myosin, human cardiac myosin S2 peptide, stabilizer and destabilizer peptide. Secondary antibody conjugated with alkaline phosphatase was anti-guinea pig immunoglobulin G (IgG)-alkaline phosphatase (Sigma-Aldrich, catalog number A5062) produced in goat and isolated by affinity chromatography. Substrate was 5-Bromo-4-chloro-3-indolyl phosphate (BCIP) tablets dissolved in 10 ml of distilled water per tablet and 96 well microtiter plate.
Competitive Enzyme Linked Immunosorbent Assay (cELISA) is a classical immunochemical test to validate the binding efficiency and specificity in lower molar concentrations (Yorde et al., 1976; Voller et al., 1978; Walker, J. M. 1996). In this assay the polyclonal antibody anti-S2 raised against single alpha helix of myosin S2 would be used to compete with stabilizer or destabilizer peptide to bind myosin S2 in rabbit skeletal myosin molecule as well as small human cardiac myosin S2 peptide. This cELISA, thus have two molecules polyclonal anti-S2 and stabilizer peptide which have two binding sites one on rabbit skeletal myosin and the other one being on small human cardiac myosin S2. Since both polyclonal anti-S2 and stabilizer peptide were designed against human β-cardiac myosin S2 they both would have a stronger affinity towards the smaller human β-cardiac myosin S2 peptide against the myosin S2 on rabbit skeletal myosin.
To test the binding specificity and efficiency of stabilizer or destabilizer peptide the following setup was used. Start of the setup would be to coat the wells with rabbit skeletal myosin molecule and add appropriate amount human cardiac myosin S2 peptide that would bind the primary polyclonal anti-S2 antibody and when washed there won't be enough primary polyclonal anti-S2 antibody to bind myosin S2 of rabbit skeletal myosin adsorbed on the wells. When alkaline phosphatase conjugated secondary antibody is added on to the wells, it won't have enough or none primary polyclonal anti-S2 antibody to bind. After addition of color developing BCIP substrate to the wells it would lead to low or no color development leading to lower optical density (OD). […]

[2] = molecular target: T2, smooth muscle myosin S2 peptide (MYH11) (Homo sapiens, UniProt P35749); experiment: FRET of smooth muscle myosin S2 peptide dimer with anti-S2 peptides; assay type: binding; conditions: control, no anti-S2 peptide; read-out: Dissociation Constant (Kd) of S2 peptide dimer
T2 construct: A 21 residue peptide of the S2 region of MYH11 was matched to the previously synthesized S2 peptide; host or cells: chemical synthesis
Source text: Human smooth muscle myosin heavy chain (MYH11) is a part of the non-striated muscle. This gene can be found within esophagus, endometrium, duodenum, etc. A 21 residue peptide of the S2 region of MYH11 was matched to the previously synthesized S2 peptide of cardiac isoform and chemically synthesized 926-946. Generated amino acid sequence used is as follow: • Smooth: NH2-[…]—COOH (SEQ ID NO:11)
Resonance energy probes (donor and acceptor) were covalently attached to synthetic myosin S2 peptides of cardiac muscle, E930del cardiac muscle, E924K cardiac muscle, smooth muscle, and skeletal muscle (Aboonasrshiraz, N., 2020).
Acceptor probe was conjugated to muscle myosin S2 peptides at N-terminus. Muscle myosin S2 peptides were dissolved in 20 mM HEPES buffer at pH 8.0. And FITC was dissolved in few drops of N, N dimethyl formamide. Lastly, FITC and muscle myosin S2 peptide was reacted together in 1 to 1 molar ratio and was let to react for 120 minutes at room temperature. […]
In FRET assay, Fluorescein Isothiocyanate (FITC) functioned as fluorescent acceptor probe and Terbium Diethylene Triamine Pentaacetic Acid-Cytosine (Lanthanide-DTPA-Cytosine) functioned as donor probe. […] Lifetime of donor probe was measured in milliseconds.
The specificity of peptides were later tested on the myosin S2 of the smooth muscle (MYH11). […] Calculated separation distance in presence of the stabilizer peptide was 3.34 nm.

[3] = molecular target: T3, cardiac muscle myosin S2 peptide (MYH7) (Homo sapiens, UniProt P12883); experiment: Gravitational force spectroscopy (GFS), uncoiling of cardiac myosin S2 peptide dimer; assay type: biochemical; conditions: length 10 nm, absence of anti-S2 peptides, ± SEM
T3 construct: host or cells: chemical synthesis
T3 sequence (P12883 912-947 limits assumed): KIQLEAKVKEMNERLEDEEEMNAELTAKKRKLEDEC
Source text: (§1) 3-aminopropyltriethoxysilane, acetone, coupling buffer (0.01 M pyridine in water with pH 6.0), 5% glutaraldehyde, quenching solution (1 M glycine in water with pH 7.0), blocking buffer (0.01 M Tris, 0.1% sodium azide, 0.1% bovine serum albumin, 0.15 M sodium chloride, and 0.001 M ethylenediaminetetraacetic acid with pH 7.0), wash buffer (0.01 M Tris, 0.1% sodium azide, 0.15 M sodium chloride, and 0.001 M ethylenediaminetetraacetic acid with pH 7.0) low salt buffer (0.1 M potassium chloride, 0.02 M imidazole, 5 mM magnesium chloride, with pH 7.0), 1-ethyl-3-(3-dimethyaminopropyl) carbodiimide, N-hydroxysuccinamide, iodoacetamide-succinimidyl ester, 8M urea solution (50 mM imidazole and 0.1 mM tris (2-carboxyethyl) phosphine with pH 7.0) monodisperse silica beads, glass slides, glass coverslips, vacuum grease, rabbit skeletal myosin, purified actin (G-actin), 1 μM human β-cardiac myosin S2 peptide, 1 μM human β-cardiac mutants myosin S2 peptide (E930del and E924K), 1 μM human skeletal myosin S2 peptide, 1 μM human smooth myosin S2 peptide, stabilizer peptide, and destabilizer peptide. A light microscope with an objective lens of 10× was mounted on an alt-azimuthal mount. A digital video camera of Sony, XCD-V60 was replaced with the ocular lenses. Extension springs on steel bracket held the alt-azimuthal mount suspended.
(§2) Gravitational force spectroscopy (GFS), is a single molecule force spectroscopy that utilizes gravitational force to measure absolute length of a single molecule at the given force calculated by the density of the bead suspending the molecule. This technique was discovered and developed in Root lab, which measures the forces in piconewton and sub-piconewton levels. Other than absolute length of a molecule, GFS measures force range required to uncoil, stretch or extend the molecule yielding a force-distance profile for the suspended molecule. Besides that, based on the force-distance profile, number of amino acids within the molecule can be calculated. […] The GFS allowed to test the flexibility or stability of a single molecule of myosin S2 peptide and also for the S2 peptides treated with anti-S2 peptides. Flexibility of myosin S2 is not dependent on assembly myosin as a thick filament or myosin in its single molecule form. The flexibility of myosin S2 region was reported to be similar in single molecule form or myosin in a thick filament assembly thus it could be conceived that the changes seen on flexibility of myosin S2 in presence of anti-S2 peptides would correlate to changes in myosin S2 flexibility for myosin in a thick filament form (Singh et al., 2018). The schematic diagram of GFS is shown below (schematic diagrams of GFS which has two modes: (FIG. 15) free-fall mode, (FIG. 16) rotational mode.
GFS set up assembly contains a light microscope that is horizontally mounted on an alt-azimuthal which is suspended with help of extension springs on a steel bracket. To capture both images and videos of suspended molecule, a digital video camera has been placed instead of the ocular lenses. The molecule of interest is tethered between an immobile edge of glass coverslip placed on a glass slide and mobile silica or glass bead. Slide with the molecule of interest in inserted into the light microscope component of GFS. The bead with molecule of interest is imaged through the microscope and then oriented to the direction of gravity vector to allow the maximal gravitation force exerted on to the bead. GFS has two modes, one is called rotational mode or an equilibrium mode which measures the absolute length of a single molecule and the second one is called free fall mode which measures the force required to unwind, uncoil, stretch or extend the molecule of interest.
Free fall mode, another measurement variant of GFS which allows the user to get a force distance profile on a single molecule experiencing the gravitational force. […]

[4] = system: primary polyclonal anti-S2 antibody; experiment: cELISA of human cardiac myosin S2 peptide against rabbit skeletal myosin S2 for antibody; assay type: binding; conditions: antibody diluted 1:64
Method: To evaluate the amount of cardiac myosin S2 peptide that would compete with rabbit skeletal myosin S2 to bind primary polyclonal anti-S2 antibody, the microtiter plate was coated with rabbit skeletal myosin first to that was added two fold dilutions of human cardiac myosin S2 peptide from 1000 nanomolar (nM) to 1 nM. Following this 1:64 diluted primary polyclonal antibody was added. After the washing step, secondary antibody is added followed by BCIP and development of color or OD was recorded and the video was analyzed by Image J. The OD will decrease as the concentration of human cardiac myosin S2 increases. […] The minimum amount of human cardiac myosin S2 peptide that would bind primary polyclonal anti-S2 antibody was at 62.5 nM (FIG. 36). Such a high binding efficiency was expected, since primary polyclonal anti-S2 antibody was raised against the same human cardiac myosin S2.

[5] = molecular target: T4, cardiac muscle myosin S2 peptide E930del (MYH7 E930del) (Homo sapiens, UniProt P12883, DEL931-931); experiment: GFS, uncoiling of E930del cardiac myosin S2 peptide dimer; assay type: biochemical; conditions: for Force required to uncoil S2 molecule: length 10 nm, absence of stabilizer, ± SEM
T4 construct: host or cells: chemical synthesis
T4 sequence (P12883 with tags, fused parts or gaps DEL931-931): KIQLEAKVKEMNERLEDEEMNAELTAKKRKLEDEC
Source text: as §1
as §2, with “The flexibility of myosin S2 region was reported to be similar in single molecule form or myosin in a thick filament assembly thus it could be conceived that the changes seen on flexibility of myosin S2 in presence of anti-S2 peptides would correlate to changes in myosin S2 flexibility for myosin in a thick filament form (Singh et al., 2018). The schematic diagram of GFS is shown below (schematic diagrams of GFS which has two modes: (FIG. 15) free-fall mode, (FIG. 16) rotational mode.” left out
Free fall mode, another measurement variant of GFS which allows the user to get a force distance profile on a single molecule experiencing the gravitational force. […] During the free fall mode, GFS has a single molecule which is suspended within an immobile edge and mobile bead will now experience the variable force which would be calculated by the product of mass of the bead and the acceleration of the GFS. […]

[6] = molecular target: skeletal muscle myosin S2 peptide (MYH2) (Homo sapiens, UniProt Q9UKX2); experiment: GFS, uncoiling of skeletal myosin S2 peptide dimer; assay type: biochemical; parameters: host or cells: chemical synthesis; conditions: length 10 nm, absence of anti-S2 peptides, ± SEM
Chain of skeletal muscle myosin S2 peptide (MYH2) (Q9UKX2 918-953 limits assumed): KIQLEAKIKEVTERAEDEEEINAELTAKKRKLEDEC
Source text: as §1, §2
Free fall mode, another measurement variant of GFS which allows the user to get a force distance profile on a single molecule experiencing the gravitational force. Free fall mode allows a variable force by the virtue of gravity to be exerted on a single molecule. The GFS setup, light microscope with mounted camera on spring on alt-azimuthal platform, can be dropped. The start of free-fall mode force applied to the bead is zero or close to zero. […] As the platform goes towards equilibrium, trace of the acceleration decays. During the free fall mode, GFS has a single molecule which is suspended within an immobile edge and mobile bead will now experience the variable force which would be calculated by the product of mass of the bead and the acceleration of the GFS.
The product of the GFS acceleration and the mass of the bead will provide a force trace for the single molecule tethered between the immobile edge and mobile bead. The image processing would provide distance trace for the single molecule experiencing the free fall by the GFS. When this force trace is aligned with distance trace will yield the extension or the stretch experience by the single molecule under variable forces. […]

## C[C@H](NC(=O)[C@H](CCCCN)NC(=O)[C@H](Cc1ccccc1)NC(=O)[C@H](CCCCN)NC(=O)[C@H](CCCCN)NC(=O)[C@H](CCCCN)NC(=O)[C@H](CCCCN)NC(=O)[C@H](CCCCN)NC(=O)[C@H](CCCCN)NC(=O)[C@H](CCCCN)NC(=O)[C@@H](N)CCCCN)C(=O)N[C@@H](CCCCN)C(=O)N[C@@H](CCCCN)C(=O)N[C@@H](CCCCN)C(=O)N[C@@H](CCCCN)C(=O)N[C@@H](CCCCN)C(=O)N[C@@H](CCCCN)C(=O)O [stabilizer peptide]
[1]
  Kd: 1.37 nM and 1.38 nM

## H-EMEARLEEEEDRGQQLQAERK-OH [Smooth Myosin S2, reference compound]
[2]
  Kd: 302 nM

## H-EMNERLEDEEEMNAELTAK-OH [Cardiac Myosin S2, reference compound]
[3]
  Force required to uncoil S2 molecule: 8.63E−01 ± 7.45E−02 pN
[3]; listed as cardiac muscle myosin S2
  Force required to uncoil S2 molecule: 8.63×10^−1±7.45×10^−2 pN
[4]
  minimum amount that would bind primary polyclonal anti-S2 antibody: 62.5 nM

## H-EMNERLEDEEMNAELTAK-OH [Cardiac Myosin S2 Mutant, E930del]
[5]
  Force required to uncoil S2 molecule: 4.11E−01 ± 2.97E−02 pN
[5]; listed as E930del
  Force required to uncoil S2 molecule: 4.11×10^−1±2.97×10^−2 pN
[5]; no anti-S2 peptide
  mechanical instability compared to wild type cardiac muscle myosin S2: 2.10 times

## H-EVTERAEDEEEINAELTAK-OH [Skeletal Myosin S2, reference compound]
[6]
  Force required to uncoil S2 molecule: 4.50E−01 ± 5.56E−02 pN
[6]; listed as skeletal muscle myosin S2
  Force required to uncoil S2 molecule: 4.50×10^−1±5.56×10^−2 pN
